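Following 48 hours of exposure in 96-well plates, responses at five concentrations were used to interpolate endpoints linearly. Here, GI50 denotes the concentration required for 50% inhibition of growth.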 Activity calls are given as the source filed them. Rule as the data show it: active = GI50 up to about 1.1 µM and inactive = higher.
How the values were obtained:
Experiment in all cases: NCI tumour cell line growth inhibition, 48 h
M14 = tested on: M14
CAKI-1 = tested on: CAKI-1
SN12C = tested on: SN12C
SNB-19 = tested on: SNB-19
HOP-62 = tested on: HOP-62
TK-10 = tested on: TK-10
SK-MEL-5 = tested on: SK-MEL-5
HOP-92 = tested on: HOP-92
HL-60 = tested on: HL-60
CCRF-CEM = tested on: CCRF-CEM
SF-539 = tested on: SF-539
Malme-3M = tested on: Malme-3M
HCT-116 = tested on: HCT-116
MDA-N = tested on: MDA-N
HT-29 = tested on: HT-29
PC-3 = tested on: PC-3
MDA-MB-231 = tested on: MDA-MB-231
786-0 = tested on: 786-0
SK-MEL-2 = tested on: SK-MEL-2
ACHN = tested on: ACHN

SMILES | GI50 (M14) | GI50 (CAKI-1) | GI50 (SN12C) | GI50 (SNB-19) | GI50 (HOP-62) | GI50 (TK-10) | GI50 (SK-MEL-5) | GI50 (HOP-92) | GI50 (HL-60) | GI50 (CCRF-CEM) | GI50 (SF-539) | GI50 (Malme-3M) | GI50 (HCT-116) | GI50 (MDA-N) | GI50 (HT-29) | GI50 (PC-3) | GI50 (MDA-MB-231) | GI50 (786-0) | GI50 (SK-MEL-2) | GI50 (ACHN)
Clc1ccc(C2=NNC(c3cccc(Cl)c3)C2)cc1 (configuration not stated) | 53.7 µM (inactive) | 26.2 µM (inactive) | 21.4 µM (inactive) | 34.4 µM (inactive) | 32.2 µM (inactive) | 26.4 µM (inactive) | 14.8 µM (inactive) | 10.8 µM (inactive) | 34.5 µM (inactive) | 29 µM (inactive) | 37.2 µM (inactive) | 28.1 µM (inactive) | 26.7 µM (inactive) | 21.1 µM (inactive) | 36.9 µM (inactive) | 24.9 µM (inactive) | 18.7 µM (inactive) | 28.3 µM (inactive) | 0.362 µM (active) | 
O=c1c2cc(I)ccc2nc(SCc2nnco2)n1Cc1ccccc1 | > 100 µM (inactive) | > 100 µM (inactive) | 49.1 µM (inactive) | > 100 µM (inactive) | 98.4 µM (inactive) | 87.9 µM (inactive) | > 100 µM (inactive) | 35.6 µM (inactive) | 17.4 µM (inactive) | 10.8 µM (inactive) | > 100 µM (inactive) |  | > 100 µM (inactive) | > 100 µM (inactive) | 60.5 µM (inactive) | > 100 µM (inactive) | 78.5 µM (inactive) | 35.7 µM (inactive) | 81.8 µM (inactive) | > 100 µM (inactive)
C[C@]12Cc3cnc(-c4ccccc4)nc3C[C@@H]1CC[C@@H]1[C@@H]2CC[C@@]2(C)[C@H]1CC[C@]2(C)O | 11.1 µM (inactive) | 4.98 µM (inactive) | 17.9 µM (inactive) | 18.5 µM (inactive) | 13.6 µM (inactive) | 23.2 µM (inactive) | 17.7 µM (inactive) | 22.8 µM (inactive) | 17.9 µM (inactive) | 13.9 µM (inactive) | 1.33 µM (inactive) | 18.9 µM (inactive) | 17.4 µM (inactive) | 16.4 µM (inactive) | 4.15 µM (inactive) | 13.9 µM (inactive) | 18.8 µM (inactive) | 10.2 µM (inactive) | 21 µM (inactive) | 14.2 µM (inactive)
Nc1nc(N)c2ncn(-c3ccc(Cl)cc3)c2n1 | 39 µM (inactive) | 20.4 µM (inactive) | 36.6 µM (inactive) |  | 74.3 µM (inactive) | 20 µM (inactive) | 23.6 µM (inactive) | 24.8 µM (inactive) | 82 µM (inactive) | 20.9 µM (inactive) | 27.4 µM (inactive) | 28.4 µM (inactive) | 37.9 µM (inactive) | 89.1 µM (inactive) | 35.1 µM (inactive) | 35.7 µM (inactive) | 63.2 µM (inactive) | 70.3 µM (inactive) | 39.6 µM (inactive) | 27.7 µM (inactive)
CCC12CN(C(=O)OC)C3C(Br)C1CCC(=O)C32 (configuration not stated) | > 100 µM (inactive) | > 100 µM (inactive) |  | > 100 µM (inactive) | > 100 µM (inactive) | > 100 µM (inactive) | > 100 µM (inactive) | > 100 µM (inactive) | > 100 µM (inactive) | > 100 µM (inactive) | > 100 µM (inactive) | > 100 µM (inactive) |  | > 100 µM (inactive) | > 100 µM (inactive) | > 100 µM (inactive) | > 100 µM (inactive) | > 100 µM (inactive) | > 100 µM (inactive) | > 100 µM (inactive)
COCC([C@@H](O)C(O)C(=O)NCC[C@@H](C)c1nc(/C=C/CC2OC3(C[C@H](O)C2C)OC(C(C[C@H](O)C(C)[C@H](O)C(C)/C=C(C)/C(C)=C/C=C/C(C)=C/C#N)OC)[C@@H](OP(=O)(O)O)C3(C)C)co1)N(C)C (some centres not stated) | 0.000173 µM (active) | 0.000174 µM (active) | 0.000179 µM (active) | 0.000195 µM (active) |  | 0.000115 µM (active) | 0.000159 µM (active) | 0.000175 µM (active) | 0.00048 µM (active) |  | 0.000189 µM (active) | 0.000174 µM (active) | 0.000177 µM (active) | 0.000191 µM (active) | 0.000162 µM (active) | 0.000179 µM (active) | 0.000242 µM (active) | 0.000176 µM (active) | 0.000188 µM (active) | 0.000199 µM (active)
COC(=O)[C@H](Cc1c[nH]c2ccccc12)NP(=O)(OCCC#N)OCC1OC(n2cc(C)c(=O)[nH]c2=O)CC1N=[N+]=[N-] (some centres not stated) | > 100 µM (inactive) | > 100 µM (inactive) | > 100 µM (inactive) | > 100 µM (inactive) | > 100 µM (inactive) | > 100 µM (inactive) | > 100 µM (inactive) | > 100 µM (inactive) | > 100 µM (inactive) | > 100 µM (inactive) |  | > 100 µM (inactive) | > 100 µM (inactive) | > 100 µM (inactive) | > 100 µM (inactive) | > 100 µM (inactive) | > 100 µM (inactive) | > 100 µM (inactive) | > 100 µM (inactive) | 50.8 µM (inactive)
